Test results published in patent publication US7807701B2, “Dibenzylamine compounds and pharmaceutical use thereof” (Japan Tobacco Inc., priority 2002, dated 2010).

How the values were obtained:
[1] = system: CETP; test: Inhibitory effect exo vivo on CETP activity in total plasma of normal hamster; settings: average values; for CETP activity (%) 2 (hr later): single oral dose 10 mg/kg, blood taken 2 hr after administration; for CETP activity (%) 4 (hr later): single oral dose 3 mg/kg, blood taken 4 hr after administration
Experimental: Potassium bromide (KBr) was added to plasma (40 mL) of healthy subject and the mixture was adjusted to have a specific density d=1.125 g/mL. The mixture was subjected to density gradient centrifugation (227,000×g, 4° C., 17 hr) and a fraction showing a specific density of d>1.125 g/mL (HDL3 fraction) was harvested. The obtained fraction was dialyzed against PBS solution [10 mmol/L Na2HPO4; 10 mmol/L NaH2PO4; 0.15 mol/L NaCl; […] (pH 7.4)]. Then, tritium-labeled cholesterol (37 MBq) was dissolved in 95% ethanol, gradually added to the above-mentioned HDL3 fraction with stirring and incubated at 37° C. for 18 hr. [By this operation, tritium-labeled cholesterol was esterified by the action of lecithin acyl transferase (LCAT) present on the HDL3 surface and taken up into HDL3 as tritium-labeled cholesteryl ester ([^3H]CE)]. After incubation, KBr was added, the mixture was adjusted to have a specific density d=1.21 g/mL, subjected to density gradient centrifugation (227,000×g, 4° C., 17 hr) and a fraction of specific density […] was harvested. The obtained fraction was dialyzed against the aforementioned PBS solution to give HDL3 incorporating [^3H]CE ([^3H]CE-HDL3, specific density: 1.125<d<1.21, specific activity: 10,000 dpm/μL), which was used as a donor lipoprotein.
(§1) The compound of the present invention was suspended in 0.5% methyl cellulose solution and orally administered once to a healthy hamster with a plastic gavage needle. Blood was taken at 2 or 4 hr after the administration and CETP activity in plasma was measured according to the following method.
The donor lipoprotein obtained above was added to hamster plasma (100 μL) to prepare [^3H]CE-HDL3-containing plasma (ca. 1,000 dpm/μL). The [^3H]CE-HDL3-containing plasma was dispensed to two microtubes by 25 μL each, and one was incubated at 37° C. and the other was incubated at 4° C. for 4 hr each. After ice-cooling, TBS solution (50 μl) containing 1 mol/L magnesium chloride and 2% dextran sulfate was added to each microtube and the mixture was thoroughly stirred. After keeping at […] for 30 min, the mixture was centrifuged (10,000×g, 4° C., 20 min), and the radioactivity in the obtained supernatant (HDL fraction) was measured with a liquid scintillation counter. The radioactivity of the [^3H]CE-HDL3-containing plasma was measured with a liquid scintillation counter, and taken as the total radioactivity. The transfer rate of [^3H]CE was calculated from the following formula using the total radioactivity (Total count), radioactivity by 37° C. incubation (37° C. count) and radioactivity by 4° C. incubation (4° C. count) of the sample of each individual and taken as the CETP activity. CETP activity(transfer ratio (%))={[(4° C. count)−(37° C. count)]/(Total count)}×100
The CETP activity inhibitory ratio of each compound administration group based on the CETP activity of the solvent administration group as 100% was calculated from the following formula and expressed in %.
CETP activity inhibitory ratio (%)=100−[(CETP activity of each compound administration group)/(CETP activity of solvent administration group)×100]

[2] = target: T1, CETP (Homo sapiens, UniProt P11597); test: Inhibitory effect in vitro on CETP activity in total plasma; type: biochemical; settings: plasma of healthy subject with [3H]CE-HDL3, 37° C., 4 hr; average values
T1 construct: The donor lipoprotein obtained above was added to plasma of healthy subject; from tissue; host or cells: whole plasma of healthy subject
T1 sequence (P11597 18-493): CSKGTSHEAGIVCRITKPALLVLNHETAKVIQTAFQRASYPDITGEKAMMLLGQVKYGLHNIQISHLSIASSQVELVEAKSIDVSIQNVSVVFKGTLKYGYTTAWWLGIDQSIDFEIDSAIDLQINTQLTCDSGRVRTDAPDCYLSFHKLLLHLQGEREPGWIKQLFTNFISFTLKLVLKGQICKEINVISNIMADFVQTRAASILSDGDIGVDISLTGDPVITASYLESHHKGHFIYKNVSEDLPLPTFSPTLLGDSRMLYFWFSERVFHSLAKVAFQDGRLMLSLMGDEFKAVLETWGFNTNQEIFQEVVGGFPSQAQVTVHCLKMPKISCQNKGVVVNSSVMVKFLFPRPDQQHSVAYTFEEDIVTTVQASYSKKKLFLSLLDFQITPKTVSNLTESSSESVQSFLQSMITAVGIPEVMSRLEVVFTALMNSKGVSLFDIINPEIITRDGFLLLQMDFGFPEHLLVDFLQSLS
Procedure, shortened: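 Healthy-donor plasma spiked with [3H]cholesteryl ester-labelled HDL3 (1,000 dpm/μL) was incubated with compound (DMF vehicle) for 4 hr at 37 °C or 4 °C. HDL was separated by MgCl2/dextran sulfate precipitation and supernatant radioactivity counted. IC50 is the concentration giving 50% inhibition of CETP activity.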

[3] = system: HDL cholesterol; test: Blood HDL cholesterol increasing effect in normal hamster; type: in vivo; settings: single oral dose 3 mg/kg, versus solvent group, average values; for HDL cholesterol increase content (%) 4 (hr later): 4 hr after administration; for HDL cholesterol increase content (%) 8 (hr later): 8 hr after administration
Experimental: as §1
To the plasma (40 μL) obtained from the above-mentioned animal at 4 or 8 hr after the administration was added 15% polyethylene glycol solution (40 μL) and the mixture was thoroughly stirred. After keeping at room temperature for 10 min, the mixture was centrifuged (10,000×g, 4° C., 20 min) and the cholesterol content (HDL cholesterol content) of the obtained supernatant (HDL fraction) was measured. The increase ratio of the HDL cholesterol content of each compound administration group when the HDL cholesterol content of the solvent administration group as 100% was calculated from the following formula and expressed in %. HDL cholesterol increase ratio(%)=[(HDL cholesterol content of each compound administration group/HDL cholesterol content of solvent administration group)×100]−100

SMILES | IC50 [2] [nM] | CETP activity (%) 2 (hr later) [1] [%] | HDL cholesterol increase content (%) 4 (hr later) [3] [%] | HDL cholesterol increase content (%) 8 (hr later) [3] [%] | CETP activity (%) 4 (hr later) [1] [%]
CCN(CCC(C)(C)CC(=O)O)c1ccc(OC(F)(F)F)cc1CN(Cc1cc(C(F)(F)F)cc(C(F)(F)F)c1)c1ccn(C)n1.Cl [Example 107, 5-[N-(2-{[N′-[3,5-bis(trifluoromethyl)benzyl]-N′-(1-methyl-1H-pyrazol-3-yl)amino]methyl}-4-trifluoromethoxyphenyl)-N-ethylamino]-3,3-dimethylpentanoic acid hydrochloride] | 560 | 41.9 |  |  | 
CCN(CCC(C)(C)CC(=O)O)c1ccc(OC(F)(F)F)cc1CN(Cc1cc(C(F)(F)F)cc(C(F)(F)F)c1)c1noc(C)n1.Cl [Example 108, 5-[N-(2-{[N′-[3,5-bis(trifluoromethyl)benzyl]-N′-(5-methyl-[1,2,4]oxadiazol-3-yl)amino]methyl}-4-trifluoromethoxyphenyl)-N-ethylamino]-3,3-dimethylpentanoic acid hydrochloride] | 250 | 53.8 |  |  | 
CCN(C[C@H]1CC[C@H](C(=O)O)CC1)c1ccc(OC(F)(F)F)cc1CN(Cc1cc(C(F)(F)F)cc(C(F)(F)F)c1)c1noc(C)n1.Cl [Example 109, trans-4-{[N-(2-{[N′-[3,5-bis(trifluoromethyl)benzyl]-N′-(5-methyl-[1,2,4]oxadiazol-3-yl)amino]methyl}-4-trifluoromethoxyphenyl)-N-ethylamino]methyl}cyclohexanecarboxylic acid hydrochloride] | 160 | 42.8 |  |  | 
CCN(C[C@H]1CC[C@H](CC(=O)O)CC1)c1cc(C(F)(F)F)c(C)cc1CN(Cc1cc(C(F)(F)F)cc(C(F)(F)F)c1)c1nnn(C)n1.Cl [Example 143, trans-(4-{[N-(2-{[N′-[3,5-bis(trifluoromethyl)benzyl]-N′-(2-methyl-2H-tetrazol-5-yl)amino]methyl}-4-methyl-5-trifluoromethylphenyl)-N-ethylamino]methyl}cyclohexyl)acetic acid hydrochloride] | 100 |  | 17.0 | 21.3 | 42.2
CCCN(C[C@H]1CC[C@H](CC(=O)O)CC1)c1ccc(C(F)(F)F)cc1CN(Cc1cc(C(F)(F)F)cc(C(F)(F)F)c1)c1nnn(C)n1.Cl [Example 154, trans-(4-{[N-(2-{[N′-[3,5-bis(trifluoromethyl)benzyl]-N′-(2-methyl-2H-tetrazol-5-yl)amino]methyl}-4-trifluoromethylphenyl)-N-propylamino]methyl}cyclohexyl)acetic acid hydrochloride] |  |  | 13.3 | 22.4 | 64.2
CCCN(C[C@H]1CC[C@H](CC(=O)O)CC1)c1cc(C)c(C(F)(F)F)cc1CN(Cc1cc(C(F)(F)F)cc(C(F)(F)F)c1)c1nnn(C)n1.Cl [Example 157, trans-(4-{[N-(2-{[N′-[3,5-bis(trifluoromethyl)benzyl]-N′-(2-methyl-2H-tetrazol-5-yl)amino]methyl}-5-methyl-4-trifluoromethylphenyl)-N-propylamino]methyl}cyclohexyl)acetic acid hydrochloride] |  |  | 17.9 | 27.1 | 80.4
CCCN(C[C@H]1CC[C@H](CC(=O)O)CC1)c1ccc(OC(F)(F)F)cc1CN(Cc1cc(C(F)(F)F)cc(C(F)(F)F)c1)c1nnn(C)n1.Cl [Example 158, trans-(4-{[N-(2-{[N′-[3,5-bis(trifluoromethyl)benzyl]-N′-(2-methyl-2H-tetrazol-5-yl)amino]methyl}-4-trifluoromethoxyphenyl)-N-propylamino]methyl}cyclohexyl)acetic acid hydrochloride] |  |  | 14.8 | 23.7 | 55.6

Now from value to molecule, other results behind:

IC50 [2] [nM] | SMILES | CETP activity (%) 2 (hr later) [1] [%] | HDL cholesterol increase content (%) 4 (hr later) [3] [%] | HDL cholesterol increase content (%) 8 (hr later) [3] [%] | CETP activity (%) 4 (hr later) [1] [%]
90 | CCN(C[C@H]1CC[C@H](CC(=O)O)CC1)c1ccc(OC(F)(F)F)cc1CN(Cc1cc(C(F)(F)F)cc(C(F)(F)F)c1)c1nnn(C)n1.Cl [Example 115, trans-(4-{[N-(2-{[N′-[3,5-bis(trifluoromethyl)benzyl]-N′-(2-methyl-2H-tetrazol-5-yl)amino]methyl}-4-trifluoromethoxyphenyl)-N-ethylamino]methyl}cyclohexyl)acetic acid hydrochloride] |  | 23.3 | 30.7 | 62.1
90 | CCN(C[C@H]1CC[C@H](CC(=O)O)CC1)c1ccc(C(F)(F)F)cc1CN(Cc1cc(C(F)(F)F)cc(C(F)(F)F)c1)c1nnn(C)n1.Cl [Example 118, trans-(4-{[N-(2-{[N′-[3,5-bis(trifluoromethyl)benzyl]-N′-(2-methyl-2H-tetrazol-5-yl)amino]methyl}-4-trifluoromethylphenyl)-N-ethylamino]methyl}cyclohexyl)acetic acid hydrochloride] |  | 21.1 | 31.7 | 55.4
60 | CCN(C[C@H]1CC[C@H](CC(=O)O)CC1)c1cc(C)c(C(F)(F)F)cc1CN(Cc1cc(C(F)(F)F)cc(C(F)(F)F)c1)c1nnn(C)n1.Cl [Example 142, trans-(4-{[N-(2-{[N′-[3,5-bis(trifluoromethyl)benzyl]-N′-(2-methyl-2H-tetrazol-5-yl)amino]methyl}-5-methyl-4-trifluoromethylphenyl)-N-ethylamino]methyl}cyclohexyl)acetic acid hydrochloride] |  | 20.3 | 31.9 | 71.6
